Where “and” joins values, the source holds several entries; their conditions need not be identical. Identical values can stand only once.
Legend:
Assay type in all cases: in vivo, human
[1] = system: MS subjects with severe fatigue; experiment: Sequential dose escalation study of fatigue in multiple sclerosis (VAFS, FSS, MFIS, Epworth sleep scale, satiety scale, adverse events); conditions: for improvement in the MFIS: on-drug vs off-drug
Method: Three groups of subjects participated in a sequential dose escalation protocol. All subjects received a fixed dose of carbidopa, 50 mg po bid. […] Tablets of the study drugs were produced by the research pharmacy at the University of Miami. Carbidopa was prepared in 50 mg, and 1-histidine at 250 mg strength. Drug dispensation was carried out by the research pharmacist according to the dosage designated for each group.
Benefits and adverse events were documented and reported to the Data Safety Monitoring Body (DSMB). After approval from the DSMB, group 2 was started. Group 2 received 500 mg po bid of L-histidine. Once again after approval from the DSMB, following the successful completion of group 2, escalation to group 3, namely 1 gm po bid of L-histidine was completed. All subjects agreed to participate with 2 lumbar punctures each a week apart, for collection of cerebrospinal fluid (CSF) for the PK/PD part of the study. Each group required the participation of 3 MS subjects and 1 normal individual. For whatever reason if a subject could not complete the study, the design permitted substitution so every group will have three MS subjects and a normal subject that completed the trial.
After informed consent, subjects were screened at the first visit to meet inclusion/exclusion criteria and baseline laboratory studies were obtained including complete blood counts, comprehensive metabolic panel, thyroid panel, and inventory of health measures, including a complete general examination as well as EKG. Subjects completed questionnaires that included the following: Visual Analogue Fatigue Scale (VAFS), fatigue severity scale (FSS), modified fatigue impact scale (MFIS), Epworth sleep scale, Satiety scale, and Center for Epidemiologic Studies Depression Scale. Within 30 days of their screening visit, subjects returned for their baseline visit. The questionnaires were completed again, and subjects underwent the baseline lumbar puncture for collection of baseline cerebrospinal fluid (CSF).
The study medication for the appropriate group was dispensed and all subjects took the first dose of the study drug during this visit.
(§1) Medications were dispensed for 7 days. On day 8, subjects arrived at the center and received the final dose of the study drug and timed from that dosing for the PK/PD studies.
(§2) Blood samples were collected at drug administration, and every 30 minutes for 4 hours. At 90 minutes the second and final lumbar puncture was completed, and CSF obtained for measurement of L-histidine and histamine. All subjects completed the same questions to determine the effects of the treatment on fatigue, wakefulness and satiety.
All subjects were recruited from the MS Center at the University of Miami. Subjects who complained of severe and persistent fatigue of duration longer than 6 months were eligible to be screened for the study. During screening inclusion and exclusion criteria were carefully reviewed. To be eligible, a subject needed to have a definite diagnosis of MS by the McDonald International Criteria and severe fatigue with a mean Fatigue Severity Score (FSS) of 5.0 or greater (maximum mean FSS=7.0). Patients with confounding factors such as anemia, untreated hypothyroidism, depression, concomitant medication that caused fatigue were carefully examined and excluded. Use of stimulants and concomitant use of medications for treatment of fatigue such as modafinil was excluded. Use of caffeine was not restricted, but patients were instructed not to change the usage. Pregnant or lactating females were not included in the study. Patients were cautioned not to use over-the-counter medications without approval of the PI during the study, especially medications for sleep or allergies including but not limited to the use of oral steroids or antihistamines with potential to confound the results of the trial.
They were spouses of patients who participated in this trial. […]

[2] = PK/PD: L-histidine levels in plasma and CSF after final dose
Method: as §1, §2
On day 7 from the baseline, the end-of-study visit, subjects arrived at the center without taking the last dose, which was administered under supervision and timed for time-zero. Baseline samples of blood for serum and plasma were collected and blood samples were obtained every half-hour for 6 hours.
At 90 minutes post administration a lumbar puncture was performed, and 0.5 ml aliquots of spinal fluid were collected for a total of 5 minutes. Spinal fluid, serum, and plasma were frozen at -80C until analysis for levels of histidine, histamine and metabolomic studies.
L-Histidine and L-Histidine-^13G6 analytical standards (Sigma Aldrich) were prepared in LC-MS grade water with 0.1% formic acid (FA). 25 μL of sample (CSF or blood) or calibration standard was mixed with 75 μL of LC-MS grade water with 0.1% FA and 200 μL of 2.5 μM L-Histidine-^13G6. […]

[3] = system: CSF biochemicals; experiment: Metabolomics in the cerebrospinal fluid after histidine loading
From the text: Four CSF samples from normal subjects (2 before histidine loading and 2 after) and 12 CSF samples from MS patients (6 before and 6 after histidine loading) were examined in this study. The MS samples were evenly distributed from 3 responders and 3 non-responder MS subjects. The dataset comprised a total of 494 biochemicals, 434 known and 60 unknown entities. […] A summary of the biochemicals that achieved significance (p≤0.05) as also those approaching significance (0.05<p<0.10), were examined. All assays also examined estimates of false discoveries (q-value) inherent in estimates that use multiple comparisons. A low q-value (<0.1) gave confidence in a result with a low p value as a potentially meaningful result.

[4] = Group 1: 150 mg po bid of L-histidine and carbidopa 50 mg po bid, one individual
[5] = Group 2: 500 mg po bid of L-histidine and carbidopa 50 mg po bid, single subject
[6] = Group 2 responder, 500 mg po bid of L-histidine and carbidopa 50 mg po bid
[7] = short exposure to the study drug
[8] = following histidine loading, lower prior to loading
[9] = responder population after histidine loading, FIG. 8

time after which plasma L-histidine levels became undetectable ([2]; human, in vivo): > 4 h
time of peak levels of L-histidine in the plasma ([2]; plasma, after final dose, FIG. 5A, 500 mg carbidopa arm): 2 h
Structure (SMILES): N[C@@H](Cc1c[nH]cn1)C(=O)O [L-histidine]
adverse events ([1]; Group 1: 150 mg po bid of L-histidine and carbidopa 50 mg po bid): No adverse events were reported
response in fatigue scales (VAFS, FSS, MFIS) [1, 4]: improved fatigue scores in all three fatigue scales
improvement in the MFIS [1, 4]: 30%
response in fatigue scales (VAFS, FSS, MFIS) [1, 5]: improvement in all 3 fatigue scales
improvement in the MFIS [1, 5]: 81%
cognition (written narrative) [1, 6]: able to think clearly, have better focus, and improved cognition
libido and sexual activity (written narrative) [1, 6]: Remarkable improvement of libido and sexual activity
overall quality of life (written narrative) [1, 6]: marked improvement in overall quality of life
relief from fatigue (written narratives) ([1]; Group 3: L-histidine 1 gm po bid and carbidopa 50 mg po bid): The relief from fatigue was complete
response in fatigue scales (VAFS, FSS, MFIS) ([1]; Group 3: L-histidine 1 gm po bid and carbidopa 50 mg po bid, MS subjects): three of the three MS subjects noticed remarkable improvement
improvements of MFIS better than off-drug scores ([1]; Group 3: L-histidine 1 gm po bid and carbidopa 50 mg po bid, three MS subjects, one value each): 69% and 74% and 82%
day on which subjects noticed the change ([1]; all subjects who noted improvement, at whatever dose, response sustained until study drug discontinued): ~2 days
adverse events ([1]; normal subjects): Nor did they experience any adverse events
benefit from the study drug ([1]; normal subjects (no MS, no fatigue)): did not notice any benefit
subset scores of MSFC (post-hoc examination) ([1]; responders, physical, cognitive and psychosocial domains): improvement of all three domains, physical, cognitive and psychosocial
change in satiety scale [1, 7]: A change in satiety scale was not recorded
change in weight [1, 7]: A change in weight was also not recorded
Epworth Sleep Scale (ESS) on study drug ([1]; single fatigue responder with ESS over 10, dropped from 13): 6
reported adverse events ([1]; whole study, all groups): few and related to the lumbar punctures or unrelated intercurrent infections
Histamine levels in the CSF ([3]; FIG. 7): below the level of detection sensitivity
Histidine levels in CSF after loading ([3]; MS patients and normal subjects, FIG. 7): increased after loading similarly in MS patients and normal subjects
Deoxycarnitine in CSF ([3]; after histidine loading): increased
NAA levels in CSF ([3]; after histidine loading): increased
Carnosine and homocarnosine levels in CSF ([3]; after histidine loading, FIG. 7): did not change significantly
levels of carnosine and homocarnosine ([3]; after the intervention (concluding statement)): increases the levels
Acetoacetate in CSF [3, 8]: increased following histidine loading
beta hydroxybutyrate in CSF [3, 8]: increased following histidine loading
cis-aconitate in CSF ([3]; post dosing, MS subjects): increases were observed
citrate in CSF ([3]; post dosing, MS subjects): increases were observed
Creatine phosphate in CSF [3, 9]: increased
N-acetylaspartate (NAA) in CSF [3, 9]: increased
